Reference: ChEMBL document CHEMBL1201862, “PubChem BioAssay data set” (2004)
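Test compounds were applied to cells in 96-well plates for 48 hours at 5 doses. GI50: concentration for 50% inhibition of growth.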 Active and inactive are the calls of the source. Rule as the data show it: active = GI50 up to about 1.1 µM and inactive = higher.

Experiments:
Test in all cases: NCI tumour cell line growth inhibition, 48 h
HCC 2998 = system: HCC 2998
HCT-116 = system: HCT-116
HT-29 = system: HT-29
OVCAR-4 = system: OVCAR-4
XF498 = system: XF498
OVCAR-8 = system: OVCAR-8
KM-20L2 = system: KM-20L2
NCI-H226 = system: NCI-H226
OVCAR-3 = system: OVCAR-3
SN12C = system: SN12C
IGROV-1 = system: IGROV-1
OVCAR-5 = system: OVCAR-5
SF-539 = system: SF-539
UACC-62 = system: UACC-62
ACHN = system: ACHN
Malme-3M = system: Malme-3M
UO-31 = system: UO-31
SK-OV-3 = system: SK-OV-3
SK-MEL-2 = system: SK-MEL-2
LOX IMVI = system: LOX IMVI
A498 = system: A498
UACC-257 = system: UACC-257
M19-MEL = system: M19-MEL
TK-10 = system: TK-10
A549 = system: A549
SF-268 = system: SF-268
HCT-15 = system: HCT-15
EKVX = system: EKVX
MOLT-4 = system: MOLT-4
DLD-1 = system: DLD-1
HOP-62 = system: HOP-62
COLO 205 = system: COLO 205
NCI-H23 = system: NCI-H23
SK-MEL-5 = system: SK-MEL-5
HL-60 = system: HL-60
SW-620 = system: SW-620
786-0 = system: 786-0
HOP-92 = system: HOP-92
LXFL 529 = system: LXFL 529
K562 = system: K562
SNB-78 = system: SNB-78
SF-295 = system: SF-295
DMS-114 = system: DMS-114
SK-MEL-28 = system: SK-MEL-28
M14 = system: M14
RPMI-8226 = system: RPMI-8226
NCI-H460 = system: NCI-H460
SNB-19 = system: SNB-19
U-251 = system: U-251
CAKI-1 = system: CAKI-1
KM12 = system: KM12
CCRF-CEM = system: CCRF-CEM
SNB-75 = system: SNB-75
DMS-273 = system: DMS-273
HOP-18 = system: HOP-18
SR = system: SR
RXF 393 = system: RXF 393

## CCc1cc(C(=O)OC)cn1C(=N)c1ccc(Cl)cc1
HCC 2998
  GI50: > 100 µM (inactive)
HCT-116
  GI50: > 100 µM (inactive)
HT-29
  GI50: > 100 µM (inactive)
OVCAR-4
  GI50: > 100 µM (inactive)
XF498
  GI50: > 100 µM (inactive)
OVCAR-8
  GI50: > 100 µM (inactive)
KM-20L2
  GI50: > 100 µM (inactive)
NCI-H226
  GI50: > 100 µM (inactive)
OVCAR-3
  GI50: > 100 µM (inactive)
SN12C
  GI50: > 100 µM (inactive)
IGROV-1
  GI50: > 100 µM (inactive)
OVCAR-5
  GI50: > 100 µM (inactive)
SF-539
  GI50: > 100 µM (inactive)
UACC-62
  GI50: > 100 µM (inactive)
ACHN
  GI50: > 100 µM (inactive)
Malme-3M
  GI50: > 100 µM (inactive)
UO-31
  GI50: > 100 µM (inactive)
SK-OV-3
  GI50: > 100 µM (inactive)
SK-MEL-2
  GI50: > 100 µM (inactive)
LOX IMVI
  GI50: > 100 µM (inactive)
A498
  GI50: > 100 µM (inactive)
UACC-257
  GI50: > 100 µM (inactive)
M19-MEL
  GI50: > 100 µM (inactive)
TK-10
  GI50: > 100 µM (inactive)
A549
  GI50: > 100 µM (inactive)
SF-268
  GI50: > 100 µM (inactive)
HCT-15
  GI50: > 100 µM
EKVX
  GI50: > 100 µM (inactive)
MOLT-4
  GI50: > 100 µM (inactive)
DLD-1
  GI50: > 100 µM (inactive)
HOP-62
  GI50: > 100 µM (inactive)
COLO 205
  GI50: > 100 µM (inactive)
NCI-H23
  GI50: > 100 µM (inactive)
SK-MEL-5
  GI50: > 100 µM (inactive)
HL-60
  GI50: > 100 µM (inactive)
SW-620
  GI50: > 100 µM (inactive)
786-0
  GI50: > 100 µM (inactive)
HOP-92
  GI50: > 100 µM (inactive)
LXFL 529
  GI50: > 100 µM (inactive)
K562
  GI50: > 100 µM (inactive)
SNB-78
  GI50: > 100 µM (inactive)
SF-295
  GI50: > 100 µM (inactive)
DMS-114
  GI50: > 100 µM (inactive)
SK-MEL-28
  GI50: > 100 µM (inactive)
M14
  GI50: > 100 µM (inactive)
RPMI-8226
  GI50: > 100 µM (inactive)
NCI-H460
  GI50: > 100 µM (inactive)
SNB-19
  GI50: > 100 µM (inactive)
U-251
  GI50: > 100 µM (inactive)
CAKI-1
  GI50: > 100 µM (inactive)
KM12
  GI50: > 100 µM (inactive)
CCRF-CEM
  GI50: > 100 µM (inactive)
SNB-75
  GI50: 87.5 µM (inactive)
DMS-273
  GI50: > 100 µM (inactive)
HOP-18
  GI50: > 100 µM (inactive)

## O=C(Nc1ccc(Cl)cc1C(F)(F)F)C(=O)C1CCCS1(=O)=O (stereo not drawn)
HCC 2998
  GI50: > 100 µM (inactive)
HCT-116
  GI50: > 100 µM (inactive)
HT-29
  GI50: > 100 µM (inactive)
OVCAR-4
  GI50: > 100 µM (inactive)
XF498
  GI50: > 100 µM (inactive)
OVCAR-8
  GI50: > 100 µM (inactive)
KM-20L2
  GI50: > 100 µM (inactive)
NCI-H226
  GI50: > 100 µM (inactive)
OVCAR-3
  GI50: > 100 µM (inactive)
SN12C
  GI50: > 100 µM (inactive)
IGROV-1
  GI50: > 10 µM (inactive)
OVCAR-5
  GI50: > 100 µM (inactive)
SF-539
  GI50: > 100 µM (inactive)
UACC-62
  GI50: > 100 µM (inactive)
ACHN
  GI50: > 100 µM (inactive)
Malme-3M
  GI50: > 100 µM (inactive)
SR
  GI50: > 100 µM (inactive)
LOX IMVI
  GI50: > 100 µM (inactive)
A498
  GI50: > 100 µM (inactive)
UACC-257
  GI50: > 100 µM (inactive)
M19-MEL
  GI50: > 100 µM (inactive)
TK-10
  GI50: > 100 µM (inactive)
A549
  GI50: > 100 µM (inactive)
SF-268
  GI50: > 100 µM (inactive)
HCT-15
  GI50: > 100 µM
EKVX
  GI50: > 100 µM (inactive)
MOLT-4
  GI50: > 100 µM (inactive)
DLD-1
  GI50: > 100 µM (inactive)
HOP-62
  GI50: > 100 µM (inactive)
COLO 205
  GI50: > 100 µM (inactive)
NCI-H23
  GI50: > 100 µM (inactive)
SK-MEL-5
  GI50: > 100 µM (inactive)
HL-60
  GI50: > 100 µM (inactive)
SW-620
  GI50: > 10 µM (inactive)
786-0
  GI50: > 100 µM (inactive)
HOP-92
  GI50: > 10 µM (inactive)
LXFL 529
  GI50: > 100 µM (inactive)
K562
  GI50: > 100 µM (inactive)
SNB-78
  GI50: > 100 µM (inactive)
SF-295
  GI50: > 100 µM (inactive)
DMS-114
  GI50: > 100 µM (inactive)
RXF 393
  GI50: > 100 µM (inactive)
SK-MEL-28
  GI50: > 100 µM (inactive)
M14
  GI50: > 100 µM (inactive)
RPMI-8226
  GI50: > 100 µM (inactive)
NCI-H460
  GI50: > 100 µM (inactive)
SNB-19
  GI50: > 100 µM (inactive)
U-251
  GI50: > 100 µM (inactive)
CAKI-1
  GI50: > 100 µM (inactive)
KM12
  GI50: > 100 µM (inactive)
CCRF-CEM
  GI50: > 100 µM (inactive)
SNB-75
  GI50: > 100 µM (inactive)
HOP-18
  GI50: > 100 µM (inactive)
